Test results reported in US7772241B2, “Variolin derivatives and their use as antitumor agents” (Pharma Mar S.A., priority 2001, dated 2010).
Where two headings read alike, the source gives them in different places.

What was measured:
K-562 = experiment: Inhibition of cells growth by colorimetric (SRB) assay, K-562; conditions: for GI50 / CC50: Homo sapiens, K562, 48 h
How it was run: (§1)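 Read-out is sulforhodamine B protein stain (OD 490 nm) after cold TCA fixation, following 48 h continuous exposure to samples spanning 10 to 10^−8 μg/ml.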

HeLa-APL = experiment: Inhibition of cells growth by colorimetric (SRB) assay, HeLa-APL
How it was run: as §1

SK-OV-3 = experiment: Inhibition of cells growth by colorimetric (SRB) assay, SK-OV-3
How it was run: as §1

Compound `CSc1nccc(-c2c3cccnc3n3c(N(C(C)=O)C(C)=O)nccc23)n1` [Compound 26] has a GI50 (K-562; read-out: GI50 K-562, SRB assay, 48 hours exposure) of 2.8 µM, a GI50 (K-562; read-out: K-562 GI50, SRB assay, 48 hours exposure) of 6.29 µM and a CC50 (K-562; read-out: K-562 LC50, SRB assay, 48 hours exposure) of 18.1 µM. For the same compound, the CC50 (K-562; read-out: LC50 K-562, SRB assay, 48 hours exposure) was 23.4 µM, the “K-562 TGI” value (K-562; SRB assay, 48 hours exposure) was 1.07E−05 and the “TGI K-562” value (K-562; SRB assay, 48 hours exposure) was 8.10E−06. The GI50 (HeLa-APL; Homo sapiens, 48 h, read-out: HELA-APL GI50, SRB assay, 48 hours exposure) was 0.00177 µM, the CC50 (HeLa-APL; Homo sapiens, 48 h, read-out: HELA-APL LC50, SRB assay, 48 hours exposure) was 0.227 µM and the “HELA-APL TGI” value (HeLa-APL; SRB assay, 48 hours exposure) was 8.64E−09. The GI50 (SK-OV-3; Homo sapiens, SK-OV-3, 48 h, read-out: GI50 SKOV-3, SRB assay, 48 hours exposure) was 0.28 µM, the CC50 (SK-OV-3; Homo sapiens, SK-OV-3, 48 h, read-out: LC50 SKOV-3, SRB assay, 48 hours exposure) was 9.35 µM and the “TGI SKOV-3” value (SK-OV-3; SRB assay, 48 hours exposure) was 1.13E−06.
